# Entries after “also recorded” stand apart in the source; their conditions may differ.
# Assays:
# [1] = system: FXR target genes (OSTα, SHP, BSEP); assay: In vivo effect on FXR target genes in mouse liver (Real-Time PCR); parameters: species or system C57BL6 mice; settings: mice, 15 mg/kg ip, 6 h, versus control mice
# Experimental: Figure 10 In vivo effect of 10 on FXR target genes. C57BL6 mice were administered with 10 (15 mg/Kg) for 6 h. After treatment liver were removed and the relative mRNA expression of OSTα, SHP and BSEP was assayed by quantitative Real-Time PCR. *p < 0.05 versus control mice.
# C57BL6 mice were administered with compound 10 (15 mg/kg, ip). At 6 h post-treatment, livers and blood were collected.
# Total RNA was extracted using the TRIzol reagent (Life Technologies). First, 1 μg of RNA was purified of the genomic DNA by DNase I treatment (Life Technologies) and random reverse-transcribed with Superscript II (Life Technologies) in a 20 μL reaction volume. Then 10 ng of cDNA was amplified in a final volume of 20 μL in a mix containing 200 nM of each sense/antisense primers and 10 μL of 2× SYBR Select Master mix (Life Technologies). RT-PCR reactions were performed in duplicate and the thermal cycling conditions were: 2 min at 95 °C, followed by 40 cycles of 95 °C for 20 s, 60 °C for 30 s on Step One Plus Instrument (ABI). The relative mRNA expression was calculated and expressed as 2^−(ΔΔCt). Sense and antisense primer sequences were the following: mouse GAPDH, […] and […]; mOSTα, […] and […]; mBSEP, […] and […]; mSHP, […] and […].
# FXR-LBD = biological target: T1, FXR-LBD (Homo sapiens, UniProt Q96RI1); assay: Alphascreen coactivator recruitment assay, FXR-LBD with SRC-1 peptide; assay type: biochemical; settings: ligand at 2 μM, effect of 6 set as 100%
# T1 construct: 10 nM of purified GST-tagged FXR-LBD protein
# T1 sequence (Q96RI1 262-486 limits assumed): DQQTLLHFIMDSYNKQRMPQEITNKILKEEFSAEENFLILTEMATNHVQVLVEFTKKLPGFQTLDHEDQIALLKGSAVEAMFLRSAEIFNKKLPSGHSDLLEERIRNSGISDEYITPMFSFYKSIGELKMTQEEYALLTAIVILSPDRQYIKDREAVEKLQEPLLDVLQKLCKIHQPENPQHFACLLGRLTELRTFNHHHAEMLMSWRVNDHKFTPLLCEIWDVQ
# Experimental: Figure 7 Coactivator recruitment assay measuring a direct interaction of FXR with SRC-1. Anti-GST-coated acceptor beads captured GST-fusion FXR-LBD and the biotinylated-SRC-1 peptide was captured by the streptavidin donor beads. FXR-LBD recruited SRC-1 in the presence of ligand at 2 μM and, upon illumination at 680 nm, chemical energy is transferred from donor to acceptor beads across the complex streptavidin-donor/Src-1-biotin/ligand/GSTFXR-LBD/anti-GST-acceptor and a signal is produced. Results are expressed as percentage of the effect of 6 arbitrarily settled as 100%. NT is referred to the experiment carried out in absence of ligand. Results are expressed as mean ± standard error.
# The relative potency of selected members of this novel family was then investigated by a detailed measurement of concentration-response curve of the 3-deoxy sulfate derivative 9, the corresponding carboxylic acid 10, and the 3β-hydroxyl alcohol 15 and carboxylic acid derivative 17, all sharing the 6α/7α configuration, on FXR transactivation. […] In this assay, the ligand induces the recruitment of the coactivator to the LBD of hFXR.
# Anti-GST-coated acceptor beads were used to capture the GST-fusion FXR-LBD, whereas the biotinylated-SRC-1 peptide was captured by the streptavidin donor beads. Upon illumination at 680 nm, chemical energy is transferred from donor to acceptor beads across the complex streptavidin-donor/Src-1-biotin/GSTFXR-LBD/anti-GST-acceptor and a signal is produced. The assay was performed in white, low-volume, 384-well Optiplates (PerkinElmer) using a final volume of 25 μL containing final concentrations of 10 nM of purified GST-tagged FXR-LBD protein, 30 nM biotinylated Src-1 peptide, 20 μg/mL anti-GST acceptor beads acceptor beads, and 10 μg/mL of streptavidin donor bead (PerkinElmer). The assay buffer contained 50 mM Tris (pH 7.4), 50 mM KCl, 0.1% BSA, and 1 mM DTT. […] After the addition of the detection mix (acceptor and donor beads), the plates were incubated in the dark for 4 h at room temperature and then were read in an Envision microplate analyzer (PerkinElmer).
compound,measurement,setting,value
"CC[C@H]1[C@@H](O)[C@@H]2[C@H](CC[C@]3(C)[C@@H]([C@H](C)CCC(=O)O)CC[C@@H]23)[C@@]2(C)CCCC[C@@H]12 [compound 10, 6α-ethyl-7α-hydroxy-5β-cholan-24-oic acid]",Relative mRNA expression of BSEP in liver,[1],significantly up-regulated; also recorded: increased the expression
same,Relative mRNA expression of OSTα in liver,[1],significantly up-regulated; also recorded: increased the expression
same,Relative mRNA expression of SHP in liver,[1],significantly up-regulated; also recorded: increased the expression
same,Recruitment of SRC-1 coactivator to FXR-LBD (in words),FXR-LBD,very potent activity in the recruitment of SRC-1 co-activator
